Structures can show the parent of a compound that is named as a salt. Where two headings read alike, the source gives them in different places.
Biological target: hNav1.7 (Homo sapiens (Human), UniProt Q15858)
Test: Tritiated sulfonamide competitive binding to membranes from cells expressing hNav1.7 and the β1 subunit;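 further: Filter-bound radioactivity counted by liquid scintillation, nonspecific binding defined with excess unlabelled ligand, IC50 fitted to percent inhibition of specific binding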
[1] = read-out: Ligand Binding Assay, 100 pM [3H]compound, membranes with hNav1.7 and β1 subunit, 18 h, room temperature

hNav1.7, sequence (Q15858 other isoform, or with tags, fused parts or gaps): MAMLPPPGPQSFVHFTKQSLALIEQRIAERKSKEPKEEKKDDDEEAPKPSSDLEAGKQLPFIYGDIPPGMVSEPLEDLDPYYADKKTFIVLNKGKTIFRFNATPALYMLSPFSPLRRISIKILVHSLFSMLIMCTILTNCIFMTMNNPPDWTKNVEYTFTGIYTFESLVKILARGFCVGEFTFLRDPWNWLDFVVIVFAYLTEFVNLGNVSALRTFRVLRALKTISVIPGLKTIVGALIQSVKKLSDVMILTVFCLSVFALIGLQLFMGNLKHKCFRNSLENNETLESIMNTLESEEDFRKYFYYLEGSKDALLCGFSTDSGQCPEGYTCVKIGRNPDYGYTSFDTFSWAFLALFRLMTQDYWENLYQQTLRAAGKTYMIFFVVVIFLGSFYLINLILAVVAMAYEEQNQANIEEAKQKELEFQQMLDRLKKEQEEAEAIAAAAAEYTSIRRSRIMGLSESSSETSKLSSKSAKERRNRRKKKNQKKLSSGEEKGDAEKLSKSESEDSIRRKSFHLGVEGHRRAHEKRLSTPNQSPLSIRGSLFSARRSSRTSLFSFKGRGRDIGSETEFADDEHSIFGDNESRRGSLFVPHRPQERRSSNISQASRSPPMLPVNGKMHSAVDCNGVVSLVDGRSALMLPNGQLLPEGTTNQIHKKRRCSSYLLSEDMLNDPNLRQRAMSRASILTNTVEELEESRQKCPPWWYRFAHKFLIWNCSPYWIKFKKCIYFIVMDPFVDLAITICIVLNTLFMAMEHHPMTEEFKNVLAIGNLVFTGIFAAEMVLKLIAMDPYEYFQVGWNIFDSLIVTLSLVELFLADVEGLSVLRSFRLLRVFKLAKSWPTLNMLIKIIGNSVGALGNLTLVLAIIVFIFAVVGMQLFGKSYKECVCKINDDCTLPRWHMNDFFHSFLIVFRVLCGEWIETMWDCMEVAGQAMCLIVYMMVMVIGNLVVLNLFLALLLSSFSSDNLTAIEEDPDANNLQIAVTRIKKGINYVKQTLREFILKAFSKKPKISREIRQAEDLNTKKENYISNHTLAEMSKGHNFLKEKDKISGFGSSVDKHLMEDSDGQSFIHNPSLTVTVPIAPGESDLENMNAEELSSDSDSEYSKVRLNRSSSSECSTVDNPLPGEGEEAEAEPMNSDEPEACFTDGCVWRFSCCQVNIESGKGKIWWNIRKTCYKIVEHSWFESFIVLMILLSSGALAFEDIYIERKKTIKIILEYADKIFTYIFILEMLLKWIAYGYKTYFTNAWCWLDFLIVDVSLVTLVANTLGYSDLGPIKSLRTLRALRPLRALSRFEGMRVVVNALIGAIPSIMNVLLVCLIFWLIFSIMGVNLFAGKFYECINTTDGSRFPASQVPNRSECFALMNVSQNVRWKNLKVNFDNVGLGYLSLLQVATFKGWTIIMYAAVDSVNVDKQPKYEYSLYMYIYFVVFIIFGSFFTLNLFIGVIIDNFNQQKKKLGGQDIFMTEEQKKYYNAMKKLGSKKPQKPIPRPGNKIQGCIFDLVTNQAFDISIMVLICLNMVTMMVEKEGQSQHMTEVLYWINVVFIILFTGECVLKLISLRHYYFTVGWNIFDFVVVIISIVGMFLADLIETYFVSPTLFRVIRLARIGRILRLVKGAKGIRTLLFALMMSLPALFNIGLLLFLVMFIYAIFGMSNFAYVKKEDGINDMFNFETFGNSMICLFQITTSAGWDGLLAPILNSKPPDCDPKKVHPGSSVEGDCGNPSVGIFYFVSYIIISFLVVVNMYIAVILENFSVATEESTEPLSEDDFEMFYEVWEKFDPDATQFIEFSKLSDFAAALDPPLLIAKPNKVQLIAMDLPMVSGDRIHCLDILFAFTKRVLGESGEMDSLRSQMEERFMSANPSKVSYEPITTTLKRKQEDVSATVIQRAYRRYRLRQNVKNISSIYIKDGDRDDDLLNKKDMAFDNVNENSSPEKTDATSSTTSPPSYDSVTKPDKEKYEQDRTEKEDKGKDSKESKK
hNav1.7, sequence (Q07699 19-218 partner): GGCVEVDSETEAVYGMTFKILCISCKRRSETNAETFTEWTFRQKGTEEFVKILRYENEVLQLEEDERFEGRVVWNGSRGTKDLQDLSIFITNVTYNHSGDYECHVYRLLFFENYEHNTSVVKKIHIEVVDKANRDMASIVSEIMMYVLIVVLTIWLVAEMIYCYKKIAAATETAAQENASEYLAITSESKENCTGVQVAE

IC50 [1]	IC50	SMILES
2.3 nM	–	C[C@@H](c1ccc(Cl)c(C2CC2)n1)N1CCC[C@@H](Oc2cc(F)c(C(=O)NS(C)(=O)=O)cc2C2CC2)C1 [Example 310, 4-(((R)-1-((S)-1-(5-chloro-6-cyclopropylpyridin-2-yl)ethyl)piperidin-3-yl)oxy)-5-cyclopropyl-2-fluoro-N-(methylsulfonyl)benzamide]
6 nM	–	CS(=O)(=O)NC(=O)c1cc(C2CC2)c(OCC2CCN(Cc3ccc(Br)cc3Cl)CC2)cc1F [Example 413, 4-((1-(4-bromo-2-chlorobenzyl)piperidin-4-yl)methoxy-5-cyclopropyl-2-fluoro-N-(methylsulfonyl)benzamide, trifluoroacetic acid salt]
–	7.4 nM	O=C(NS(=O)(=O)N1CCC1)c1cc(C2CC2)c(O[C@@H]2CCCN(Cc3cccc(Cl)c3)C2)cc1F [Example 28, (R)—N-(azetidin-1-ylsulfonyl)-4-((1-(3-chlorobenzyl)piperidin-3-yl)oxy)-5-cyclopropyl-2-fluorobenzamide]
–	879 nM	CS(=O)(=O)NC(=O)c1cc(C2CC2)c(CN2CCC([S+]([O-])c3cc(Cl)cc(Cl)c3)CC2)cc1F (centres unmarked) [Example 534, 5-cyclopropyl-4-((4-((3,5-dichlorophenyl)sulfinyl)piperidin-1-yl)methyl)-2-fluoro-N-(methylsulfonyl)benzamide, trifluoroacetic acid salt]
–	5.9 nM	CC(c1cc(Cl)cc(Cl)c1)N1CCN(Cc2cc(F)c(C(=O)NS(=O)(=O)C3CC3)cc2C2CC2)CC1 (centres unmarked) [Example 541, 5-cyclopropyl-N-(cyclopropylsulfonyl)-4-((4-(1-(3,5-dichlorophenyl)ethyl)piperazin-1-yl)methyl)-2-fluorobenzamide]
4.7 nM	–	O=C(NS(=O)(=O)CC1CC1)c1cc(C2CC2)c(OCC2CN(C(c3ccccc3)c3ccccc3)C2)cc1F [Example 64, 4-((1-benzhydrylazetidin-3-yl)methoxy)-5-cyclopropyl-N-((cyclopropylmethyl)-sulfonyl)-2-fluorobenzamide]
–	2.6 nM	O=C(NS(=O)(=O)C1CC1)c1cc(C2CC2)c(O[C@@H]2CCCN(Cc3ccc(Cl)cc3Cl)C2)cc1F [Example 31, (R)-5-cyclopropyl-N-(cyclopropylsulfonyl)-4-((1-(2,4-dichlorobenzyl)piperidin-3-yl)oxy)-2-fluorobenzamide]
5.4 nM	–	Cc1cc(C)cc(CN2CCC[C@@H](Oc3cc(F)c(C(=O)NS(C)(=O)=O)cc3C3CC3)C2)c1 [Example 436, (R)-5-cyclopropyl-4-((1-(3,5-dimethylbenzyl)piperidin-3-yl)oxy)-2-fluoro-N-(methylsulfonyl)benzamide, trifluoroacetic acid salt]
–	5 nM	CS(=O)(=O)NC(=O)c1cc(C2CC2)c(CN2CCC(Oc3cc(C(F)(F)F)cc(Cl)c3F)CC2)cc1F [Example 536, 4-((4-(3-Chloro-2-fluoro-5-(trifluoromethyl)phenoxy)piperidin-1-yl)methyl)-5-cyclopropyl-2-fluoro-N-(methylsulfonyl)benzamide, trifluoroacetic acid salt]
2.5 nM	–	CC1(COc2cc(F)c(C(=O)NS(=O)(=O)C3CC3)cc2C2CC2)CN(C(c2ccccc2)c2cc(Cl)cc(Cl)c2)C1 (centres unmarked) [Example 421, 5-cyclopropyl-N-(cyclopropylsulfonyl)-4-((1-((3,5-dichlorophenyl)(phenyl)methyl)-3-methylazetidin-3-yl)methoxy)-2-fluorobenzamide, trifluoroacetic acid salt]
5 nM	–	COC[C@@](C)(c1cc(Cl)cc(Cl)c1)N1CCC(COc2cc(F)c(C(=O)NS(C)(=O)=O)cc2C2CC2)CC1 (single isomer, unassigned) [Example 201]
5.2 nM	–	O=C(NS(=O)(=O)C1CC1)c1cc(C2CC2)c(OCC2CCN(C3(c4cc(Cl)cc(Cl)c4)COC3)CC2)cc1F [Example 175, 5-Cyclopropyl-N-(cyclopropylsulfonyl)-4-((1-(3-(3,5-dichlorophenyl)oxetan-3-yl)piperidin-4-yl)methoxy)-2-fluorobenzamide]
4.5 nM	–	C[C@@H](c1cc(Cl)cc(Cl)c1)N1CCC(F)(COc2cc(F)c(C(=O)NS(=O)(=O)C3CC3)cc2C2CC2)CC1 [Example 350]
23.1 nM	–	CS(=O)(=O)NC(=O)c1cc(C2CC2)c(OCC2CCN(S(=O)(=O)c3cccc(C(F)(F)F)c3)CC2)cc1F [Example 374, 5-cyclopropyl-2-fluoro-N-(methylsulfonyl)-4-((1-((3-(trifluoromethyl)phenyl)sulfonyl)piperidin-4-yl)methoxy)benzamide]
30.8 nM	–	CS(=O)(=O)NC(=O)c1cc(C2CC2)c(OCC2CCN(S(=O)(=O)c3ccccc3C(F)(F)F)CC2)cc1F [Example 370, 5-cyclopropyl-2-fluoro-N-(methylsulfonyl)-4-((1-((2-(trifluoromethyl)phenyl)sulfonyl)piperidin-4-yl)methoxy)benzamide]
3200 nM	–	CS(=O)(=O)NC(=O)c1cc(C2CC2)c(OCC2CCN(C(=O)c3ccccc3)CC2)cc1F [Example 197, 4-((1-Benzoylpiperidin-4-yl)methoxy)-5-cyclopropyl-2-fluoro-N-(methylsulfonyl)benzamide]

IC50 [1]	IC50	SMILES
13 nM	–	Cn1nc(C(F)(F)F)c(CN2CCC(COc3cc(F)c(C(=O)NS(=O)(=O)C4CC4)cc3C3CC3)CC2)c1Cl [Example 357, 4-((1-((5-chloro-1-methyl-3-(trifluoromethyl)-1H-pyrazol-4-yl)methyl)piperidin-4-yl)methoxy)-5-cyclopropyl-N-(cyclopropylsulfonyl)-2-fluorobenzamide, trifluoroacetic acid salt]
443 nM	–	CS(=O)(=O)NC(=O)c1cc(C2CC2)c(OCC2CN([C@@H](c3ccccc3)c3ccncc3)C2)cc1F [Example 152, (S)-5-Cyclopropyl-2-fluoro-N-(methylsulfonyl)-4-((1-(phenyl(pyridin-4-yl)methyl)azetidin-3-yl)methoxy)benzamide]
6.9 nM	–	CS(=O)(=O)NC(=O)c1cc(C2CC2)c(OCC2CCN(Cc3cc(F)c(Br)cc3F)CC2)cc1F [Example 588, 4-((1-(4-bromo-2,5-difluorobenzyl)piperidin-4-yl)methoxy)-5-cyclopropyl-2-fluoro-N-(methylsulfonyl)benzamide]
10.1 nM	–	O=C(NS(=O)(=O)C1CC1)c1cc(C2CC2)c(OCC2CCN(S(=O)(=O)c3ccc(Br)c(Cl)c3)CC2)cc1F [Example 391, 4-((1-((4-bromo-3-chlorophenyl)sulfonyl)piperidin-4-yl)methoxy)-5-cyclopropyl-N-(cyclopropylsulfonyl)-2-fluorobenzamide]
411 nM	–	CS(=O)(=O)NC(=O)c1cc(C2CC2)c(OCC2CCN(CCC(F)(F)F)CC2)cc1F [Example 117, 5-Cyclopropyl-2-fluoro-N-(methylsulfonyl)-4-((1-(3,3,3-trifluoropropyl)piperidin-4-yl)methoxy)benzamide]
9400 nM	–	CS(=O)(=O)NC(=O)c1cc(C2CC2)c(OCC2CCN([C@@H]3c4ccccc4C[C@H]3O)CC2)cc1F [Example 200, 5-Cyclopropyl-2-fluoro-4-((1-((1R,2R)-2-hydroxy-2,3-dihydro-1H-inden-1-yl)piperidin-4-yl)methoxy)-N-(methylsulfonyl)benzamide]
2.9 nM	–	CC(C)(C)c1ccc(CN2CCC[C@@H](Oc3cc(F)c(C(=O)NS(C)(=O)=O)cc3C3CC3)C2)cc1 [Example 425, (R)-4-((1-(4-(tert-butyl)benzyl)piperidin-3-yl)oxy)-5-cyclopropyl-2-fluoro-N-(methylsulfonyl)benzamide, trifluoroacetic acid salt]
4580 nM	–	O=C(NS(=O)(=O)N1CCC1)c1cc(C2CC2)c(O[C@H]2CCN(Cc3ccccc3)C2)cc1F [Example 45, (S)—N-(azetidin-1-ylsulfonyl)-4-((1-benzylyprrolidin-3-yl)oxy)-5-cyclopropyl-2-fluorobenzamide]
12 nM	–	CS(=O)(=O)NC(=O)c1cc(C2CC2)c(OCC2CCN(C3(c4cc(Cl)cc(Cl)c4)COC3)CC2)cc1F [Example 174, 5-Cyclopropyl-4-((1-(3-(3,5-dichlorophenyl)oxetan-3-yl)piperidin-4-yl)methoxy)-2-fluoro-N-(methylsulfonyl)benzamide]
3.2 nM	–	CS(=O)(=O)NC(=O)c1cc(C2CC2)c(OCC2CCN(c3cc(C(F)(F)F)c(Cl)cn3)CC2)cc1F [Example 554, 4-((1-(5-chloro-4-(trifluoromethyl)pyridin-2-yl)piperidin-4-yl)methoxy)-5-cyclopropyl-2-fluoro-N-(methylsulfonyl)benzamide]
9900 nM	–	CC(C)N(C(=O)CN1CCC(COc2cc(F)c(C(=O)NS(C)(=O)=O)cc2C2CC2)CC1)C(C)C [Example 180, 5-Cyclopropyl-4-((1-(2-(diisopropylamino)-2-oxoethyl)piperidin-4-yl)methoxy)-2-fluoro-N-(methylsulfonyl)benzamide]
3.6 nM	–	CCS(=O)(=O)NC(=O)c1cc(C2CC2)c(OCC2CCN([C@](C)(COC)c3cc(Cl)cc(Cl)c3)CC2)cc1F (single isomer, unassigned) [Example 203]
6.7 nM	–	O=C(NS(=O)(=O)C1CC1)c1cc(Cl)c(OCC2CCN(Cc3cc(Cl)cc(OC(F)(F)F)c3)CC2)cc1F [Example 407, 5-chloro-4-((1-(3-chloro-5-(trifluoromethoxy)benzyl)piperidin-4-yl)methoxy)-N-(cyclopropylsulfonyl)-2-fluorobenzamide, trifluoroacetic acid salt]
–	15 nM	CS(=O)(=O)NC(=O)c1cc(C2CC2)c(CN2CCN(Cc3cc(Cl)cc(Cl)c3)CC2)cc1F [Example 517, 5-cyclopropyl-4-((4-(3,5-dichlorobenzyl)piperazin-1-yl)methyl)-2-fluoro-N-(methylsulfonyl)benzamide, trifluoroacetic acid salt]
258 nM	–	C[C@@H](c1cc(Cl)cc(Cl)c1)N1CCC(C#N)(COc2cc(F)c(C(=O)NS(C)(=O)=O)cc2C2CC2)CC1 [Example 598]
–	2.9 nM	C[C@@H]1CN(Cc2cc(F)c(C(=O)NS(=O)(=O)C3CC3)cc2C2CC2)CCN1[C@H](C)c1cc(Cl)cc(Cl)c1 [Example 570, 5-cyclopropyl-N-(cyclopropylsulfonyl)-4-(((R)-4-((R)-1-(3,5-dichlorophenyl)ethyl)-3-methylpiperazin-1-yl)methyl)-2-fluorobenzamide]

Source: patent US9546164B2 (GENENTECH, INC., priority 2013, dated 2017)
